Data on twelve compounds can be found in ChEMBL document CHEMBL4184271, “Design, synthesis, anti-inflammatory activity and molecular docking of potential novel antipyrine and pyrazolone analogs as cyclooxygenase enzyme (COX) inhibitors” (Bioorg Med Chem Lett, 2018).

Bounds are passed on as bounds.

The species entered for one assay is Ovis aries. As to the kind of experiment: Selectivity ratio of compound effect for inhibition of ovine COX2 to compound effect for inhibition of ovine COX1.
Assay [1] has as its target T1, Prostaglandin G/H synthase 1 (Ovis aries, UniProt P05979).
T1 sequence (P05979 whole entry): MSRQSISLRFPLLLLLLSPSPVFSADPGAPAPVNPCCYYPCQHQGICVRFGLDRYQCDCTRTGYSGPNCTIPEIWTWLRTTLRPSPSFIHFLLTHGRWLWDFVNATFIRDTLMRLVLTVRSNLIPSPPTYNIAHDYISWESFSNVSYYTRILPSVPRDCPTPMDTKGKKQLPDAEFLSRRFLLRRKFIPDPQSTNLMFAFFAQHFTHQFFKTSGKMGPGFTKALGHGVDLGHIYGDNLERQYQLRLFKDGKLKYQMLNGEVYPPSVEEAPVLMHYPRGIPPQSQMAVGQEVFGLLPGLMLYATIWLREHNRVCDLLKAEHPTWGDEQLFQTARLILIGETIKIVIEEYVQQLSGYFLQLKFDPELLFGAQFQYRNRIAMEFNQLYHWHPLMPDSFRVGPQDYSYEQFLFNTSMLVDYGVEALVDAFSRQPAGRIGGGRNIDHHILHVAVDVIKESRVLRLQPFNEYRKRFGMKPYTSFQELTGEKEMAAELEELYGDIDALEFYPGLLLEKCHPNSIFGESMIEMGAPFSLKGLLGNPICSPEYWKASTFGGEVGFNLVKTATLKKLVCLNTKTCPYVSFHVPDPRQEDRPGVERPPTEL
The experiment in a line: Inhibition of ovine COX1 using arachidonic acid as substrate preincubated for 10 mins followed by substrate addition measured after 5 mins by ELISA.

For assay [2], the target named is T2, Prostaglandin G/H synthase 1 (Ovis aries) (UniProt P05979).
T2 sequence (whole entry): T1 sequence (P05979 whole entry)
The experiment in a line: Inhibition of ovine COX1 at 5 uM using arachidonic acid as substrate preincubated for 10 mins followed by substrate addition measured after 5 mins by ELISA relative to control. On the technique in general: An ELISA detects its analyte on a solid surface through an enzyme-linked reagent.

In the next assay the test system is Rattus norvegicus. As to the kind of experiment: Anti-inflammatory activity in Sprague-Dawley rat assessed as inhibition of carrageenan-induced edema in hind paw administered ip measured after 4 to 6 hrs relative to control. It is filed as functional. For orientation: In the carrageenan paw model, swelling and tenderness develop within hours.

As to `Cc1c(CN2CCC(CCCC3CCN(Cc4c(C)n(C)n(-c5ccccc5)c4=O)CC3)CC2)c(=O)n(-c2ccccc2)n1C`, the Selectivity ratio in the assay filed under Ovis aries was 0.78. The compound further displayed an IC50 in assay [1] of 1.23 µM. Besides, the inhibition in assay [2] was 88.5%. Further, the “inhibition (INH)” value in the assay with Rattus norvegicus is 85.4%.
Taken in the same sequence, the figures for `CC1=NN(c2ccccc2)C(=O)/C1=C\c1ccc2c(c1)OCO2` were 0.67, 22.2 µM, 25% and 20.3%.
`CC1=NN(c2ccccc2)C(=O)C1C(c1c(C)c(=O)n(-c2ccccc2)n1C)N1CCN(C(c2c(C)c(=O)n(-c3ccccc3)n2C)C2C(=O)N(c3ccccc3)N=C2C)CC1` (stereo not given): the Selectivity ratio in the assay listed under Ovis aries turned out to be 0.87. This compound registered an IC50 in assay [1] of 1.16 µM. Further, in assay [2], the inhibition was determined as 87.4%. Moreover, the “inhibition (INH)” value in the assay with Rattus norvegicus was found to be 49.5%.
As to `CC1=NN(c2ccccc2)C(=O)/C1=C\c1c(C)n(C)n(-c2ccccc2)c1=O`, in the assay listed under Ovis aries, the Selectivity ratio turned out to be 0.87. For the same compound, the IC50 in assay [1] is over 5 µM. Moreover, in assay [2], the inhibition turned out to be 87%. The “inhibition (INH)” value in the assay on Rattus norvegicus stood at 49.1%.
Take `Cc1ccc(-c2cc(C(F)(F)F)nn2-c2ccc(S(N)(=O)=O)cc2)cc1` [CELECOXIB]: the “inhibition (INH)” value in the assay with Rattus norvegicus was 89%.
As for `CC1=NN(c2ccccc2)C(=O)C1C(c1c(C)n(C)n(-c2ccccc2)c1=O)N1CCCCC1` (stereo not given), the Selectivity ratio in the assay listed under Ovis aries came out at 0.95. For the same compound, the IC50 in assay [1] came to 1.33 µM. The compound also had an inhibition in assay [2] of 78%. For the same compound, the “inhibition (INH)” value with Rattus norvegicus stood at 40.5%.
For `CC1=NN(c2ccccc2)C(=O)C1C(Nc1c(C)n(C)n(-c2ccccc2)c1=O)c1c(C)n(C)n(-c2ccccc2)c1=O` (stereo not given), in that order: 1.01, over 5 µM, 58.8% and 39.4%.
For `CC1=NN(c2ccccc2)C(=O)C1C(Nc1c(C)n(C)n(-c2ccccc2)c1=O)c1ccc2c(c1)OCO2` (stereo not given), in that order: 0.82, 2.52 µM, 84.2% and 48.3%.
Taken in the same sequence, the figures for `Cc1nn(-c2ccccc2)c(O)c1C(c1c(-c2ccccc2)[nH]c2ccccc12)c1c(C)c(=O)n(-c2ccccc2)n1C` (stereo not given) were 0.79, over 5 µM, 69.1% and 35.9%.
`CC1=NN(c2ccccc2)C(=O)C1C(c1ccc2c(c1)OCO2)N1CCN(C(c2ccc3c(c2)OCO3)C2C(=O)N(c3ccccc3)N=C2C)CC1` (stereo not given): the Selectivity ratio in the assay filed under Ovis aries came to 1.2. The same compound gave an IC50 in assay [1] of over 5 µM. For the same compound, in assay [2], the inhibition was 42.9%. Besides, the “inhibition (INH)” value with Rattus norvegicus was determined as 21.1%.
Taken in the same sequence, the figures for `Cc1c(CN2CCN(CCO)CC2)c(=O)n(-c2ccccc2)n1C` were 1.05, over 5 µM, 73.4% and 48.2%.
Taken in the same sequence, the figures for `Cc1c(C(CCCC(c2c(C)n(C)n(-c3ccccc3)c2=O)c2c(C)n(C)n(-c3ccccc3)c2=O)c2c(C)n(-c3ccccc3)n(C)c2=O)c(=O)n(-c2ccccc2)n1C` (stereo not given) were 0.48, 1.46 µM, 81.3% and 75%.

As usually defined, the IC50 is the concentration at which inhibition is half-maximal. As a reminder, the inhibition is the change of the read-out against control, counted positive when it falls. The low end stands for little suppression, the high end for strong suppression.
